The values that follow come from US20080003569A1, “Method for the Detection of Intracellular Parameters With Luminescent Protein Probes for the Screening of Molecules Capable of Altering Said Parameters” (priority 2004, published 2008).

Some results are limits rather than exact numbers.

The target of experiment [1] is endogenous receptor for histamine Hi (Homo sapiens, UniProt P35367). The following applies: HeLa mt-AEQ cells, histamine 100 μM.
Method: (§2) The cellular lines thus engineered were then both transfected with the vector containing the mt-AEQ probe by means of the calcium phosphate technique.
(§3) 36 hours after the transfection, the cells, cultivated on flasks for cellular cultures (75 cm^2), were detached from the bottom by trypsinization. The cellular suspension was then transferred to a Falcon tube (of 15 or 50 ml) and subjected to centrifugation at 1200 rpm in a cell centrifuge at 20° C. and finally the cellular precipitate was re-suspended in KRB/Ca^2+ (Krebs-Ringer modified buffer: 125 mM NaCl, 5 mM KCl, 1 mM CaCl2, 1 mM Na3PO4, 1 mM MgSO4, 5.5 mM glucose, 20 mM HEPES, pH 7.4, 37° C.).
(§4) The prosthetic group celentherazine was added at a final concentration of 5 μM to the suspension of engineered cells expressing the mt-AEQ probe.
(§5) 50 μl of suspension containing transfected cells (corresponding to about 100,000 cells) were planted in each well of the plate. The cells were left to adhere for a time varying from 1 to 2 hours keeping them in the dark, due to the photo-instability of celentherazine.
(§6) At the end of the incubation time, the various molecules to be tested were added to each well and the plate with the treated cells was then put in direct contact with a photo-multiplier which measures the emission of photons on the part of aequorin. […]
Experiment [2] concerns endogenous receptor for ATP P2Y. Put plainly: mt-AEQ photon emission, CHO cells, endogenous ATP receptor. It counts as cell-based. The note with it: ATP 100 μM.
Method: as §3, §4, §5
(§7) At the end of the incubation time, the various molecules to be tested were added to each well and the plate with the treated cells was then put in direct contact with a photo-multiplier which measures the emission of photons on the part of aequorin.
The test system of experiment [3] is PKC-aequorin (PKC-AEQ) probe: PKC beta, delta, epsilon, zeta. Description: Translocation of PKC-aequorin probe to the plasmatic membrane, HeLa cells, photon emission. Format: cell-based. An excerpt:
In the specific example, the results presented relate to the use of the PKC beta-aequorin (PCKβ-AEQ), PKC delta-aequorin (PCKδ-AEQ), PKC epsilon-aequorin (PCKε-AEQ), PKC zeta-aequorin (PCKζ-AEQ) probes.
These probes were obtained by inserting, in a eukaryotic expression vector (pcDNA3; 5.4 kb), the sequence encoding the various PKC isoforms condensed in frame with the sequence encoding aequorin described above.
The cells cultivated on cellular culture flasks (75 cm^2) were transfected with a vector containing the chimeric probe produced, using the most suitable transfection techniques for the cellular line in question. As the HeLa stabilized cellular line was used as experimental model, the calcium phosphate technique was adopted as transfection method which guarantees a high percentage of positive cells for this cellular line.
(§1) 36 hours after transfection, the cells contained in the flask were detached from the bottom by trypsinization.
The prosthetic group celentherazine was added to the suspension of cells expressing the PKC-aequorin probe at a final concentration of 5 μM. […]

For experiment [4], the system named is p66shc-aequorin (p66shc-AEQ) probe. Description: Translocation of p66shc-aequorin probe to the plasmatic membrane, A431 cells. Format: cell-based.
Text: This probe was obtained by inserting, in a eukaryotic expression vector (pcDNA3; 5.4 kb), the sequence encoding the p66shc protein condensed in frame with the sequence encoding aequorin.
The cells cultivated on cellular culture flasks (75 cm^2) were transfected with a vector containing the chimeric probe produced, using the most suitable transfection techniques for the cellular line in question. The stabilized transfected cellular line A431 was adopted as experimental model, using the “Effectene reagent” procedure (Qiagen, Germany), which guarantees a high percentage of positive cells for this cellular line.
24 hours after the transfection, the cells were maintained in a DMEM culture medium, without serum.
as §1
The prosthetic group celentherazine was added to the suspension of cells expressing the p66shc-aequorin probe, at a final concentration of 5 μM. […]

In experiment [5] the test system is PKC beta-aequorin (PKCβ-AEQ) probe. Description: Translocation of PKC beta-aequorin probe under hyperglycaemia conditions, HUVEC cells. The following applies: 10 mM glucose plus metformin 20 μM. Format: cell-based. An excerpt: A beta-aequorin PKC probe, already described in example 1, was used, with which HUVEC endothelial cells were transfected. The cells cultivated on cellular culture flasks (75 cm^2) were transfected with a vector containing the chimeric probe produced, using the most suitable transfection techniques for the cellular line in question. Endothelial cells of stabilized umbilical cord veins, called HUVEC, were used as the experimental model, which were transfected with the PKC beta-aequorin probe, using lipofectamine which guarantees a high percentage of positive cells for this cellular line. 36 hours after transfection, the cells contained in the flask were detached from the bottom by trypsinization. […] The prosthetic group celentherazine at a final concentration of 5 μM was added to the cell suspension expressing the PKC beta-aequorin probe. […] The example provided was carried out on three parallel batches of cells: a) HUVEC cells expressing the PKC beta-aequorin (PKCβ-AEQ) probe, maintained under control conditions (absence of glucose) (dotted line). b) HUVEC cells expressing the PKC beta-aequorin (PKCβ-AEQ) probe, maintained under hyperglycaemia conditions (10 mM of glucose) (dark, thick line). c) HUVEC cells expressing the PKC beta-aequorin (PKCβ-AEQ) probe, maintained under hyperglycaemia conditions (10 mM of glucose) treated with a well-known anti-diabetic agent, metformin (20 μM) (dark, thin line).

Experiment [6] concerns beta/alpha adrenergic receptor (chimeric). Put plainly: mt-AEQ photon emission, HeLa cells expressing chimeric beta/alpha adrenergic receptor. It counts as cell-based. The note with it: HeLa mt-AEQ cells with chimeric receptor, isoproterenol 100 μM; from less than 20 before stimulation.
Method: as §2, §3, §4, §5, §6
The subject of a further experiment is beta adrenergic receptor. Put plainly: mt-AEQ photon emission, control HeLa cells expressing beta adrenergic receptor. It counts as cell-based. The note with it: control HeLa cells expressing a beta adrenergic receptor, stimulated with isoproterenol.
The subject of experiment [7] is ORL1/alpha adrenergic receptor (chimeric). Put plainly: mt-AEQ photon emission, CHO cells expressing chimeric ORL1/alpha adrenergic receptor. The note with it: CHO mt-AEQ cells with chimeric receptor, nociceptine 1 μM; from less than 20 before stimulation. It counts as cell-based.
Method: as §2, §3, §4, §5, §6
The mark [8] stands for this setting: from less than 20 before stimulation.

Sequence of endogenous receptor for histamine Hi (P35367 whole entry): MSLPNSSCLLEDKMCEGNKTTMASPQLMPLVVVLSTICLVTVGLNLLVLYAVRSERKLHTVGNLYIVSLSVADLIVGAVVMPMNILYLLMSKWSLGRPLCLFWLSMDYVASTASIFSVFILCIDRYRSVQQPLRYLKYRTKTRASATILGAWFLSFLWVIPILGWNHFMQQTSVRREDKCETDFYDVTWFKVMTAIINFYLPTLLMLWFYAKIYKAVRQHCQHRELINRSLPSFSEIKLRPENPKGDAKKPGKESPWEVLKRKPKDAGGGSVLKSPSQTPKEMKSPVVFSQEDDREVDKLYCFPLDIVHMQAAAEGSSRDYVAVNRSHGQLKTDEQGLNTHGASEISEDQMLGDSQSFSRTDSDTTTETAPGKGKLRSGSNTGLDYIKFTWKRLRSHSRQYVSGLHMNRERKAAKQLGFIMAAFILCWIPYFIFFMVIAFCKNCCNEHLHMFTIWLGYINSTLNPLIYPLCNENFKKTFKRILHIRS
Method for beta adrenergic receptor: as §3, §4, §5, §7
HeLa cells expressing a beta adrenergic receptor and stimulated with isoproterenol for inducing the stimulation of said receptor, were used as control (dotted line).

For the compound `NCCc1c[nH]cn1` [histamine, Histamine], the “concentration of calcium in the mitochondrial matrix” value in experiment [1] was “considerable and transient increase”. Besides, the “emission of photons on the part of aequorin” value (shortened to “emission … of aequorin”) in experiment [1] (setting [8]) is reported as “over 80,000 photons emitted per second”.
On to `Nc1ncnc2c1ncn2[C@@H]1O[C@H](COP(=O)(O)OP(=O)(O)OP(=O)(O)O)[C@@H](O)[C@H]1O` [ATP], for which the “concentration of calcium in the mitochondrial matrix” value in experiment [2] is “considerable and transient increase”. Moreover, the “emission … of aequorin” value in experiment [2] (setting [8]) is “over 80,000 photons emitted per second”.
For the compound `CCCCCCCCCCCCCC(=O)O[C@@H]1[C@@H](C)[C@@]2(O)[C@@H](C=C(CO)C[C@]3(O)C(=O)C(C)=C[C@@H]23)[C@@H]2C(C)(C)[C@]12OC(C)=O` [PMA], the emission of photons is > 100,000 cps in experiment [3] (HeLa PKC-AEQ cells, PMA 1 μM, after addition of external calcium) and “lower than 100 cps” in experiment [3] (HeLa cells, absence of external calcium).
For the compound “EGF: epidermic growth factor, maximal activator of p66shc translocation”, the emission of photons result in experiment [4] (A431 cells, absence of external calcium) is “lower than 100 cps”; in experiment [4] (A431 p66shc-AEQ cells, EGF 100 ng/ml, after addition of external calcium), > 100,000 cps.
With `CN(C)C(=N)N=C(N)N` [metformin], in experiment [5] (HUVEC PKCβ-AEQ cells, after addition of external calcium), the emission of photons entry was “lower than 40,000 cps”. In experiment [5] (HUVEC), the “inhibition of the PKCβ-AEQ probe translocation (grade)” value is on record as “good inhibition” and the “translocation induced by glucose under hyperglycaemia conditions” value is on record as “inhibits the translocation”.
Consider `CC(C)NCC(O)c1ccc(O)c(O)c1` (centres unmarked) [isoproterenol, Isoproterenol], for which, in experiment [6], the “emission … of aequorin” value was “over 80,000 photons emitted per second”. The increase in cps result in the experiment with beta adrenergic receptor is recorded as “does not induce any increase in cps”.
In the case of Nociceptine, the “emission … of aequorin” value in experiment [7] is given as “over 80,000 photons emitted per second”.
